From article PMC11642044 (International Journal of Molecular Sciences, 2024)

What was measured:
Format in all cases: cell-based, human
p38 in U87-MG cells = experiment: p38 phosphorylation in U87-MG by SK-N-MC-derived conditioned media (CM-SK); settings: HOE-140 5 μM, 15 min pre-treatment
Method: (§1) These conditioned media were either immediately applied to SK-N-SH/SK-N-MC cells (80–100% confluence) in 6-well plates for 15 min, or subjected to heat treatment on a 96 °C heat block for 5 min, and then cooled to 37 °C before they were applied to the SK-N-SH/SK-N-MC cells for 15 min. […] For the SK-N-MC-derived conditioned media, SK-N-MC cells (80–100% confluence) in a 10 cm culture dish were serum-starved in 10 mL of MEM (without FBS), with 1 mL of the resulting conditioned medium being collected at indicated time points (15 min, 1 h, 3 h, 6 h). Simultaneously, U87-MG cells (80–100% confluence) in 12-well plates were serum-starved in MEM for 6 h, followed by pretreatment of […] (5 μM, 15 min), and then challenged with the SK-N-MC-derived conditioned media (mentioned above) for 10 min before cell lysis. […]
(§2) SDS-PAGE and Western blotting were performed as described in our previous studies. […] The amount of protein in each sample was determined by detergent compatible (DC) protein assay according to the supplier’s instruction (Bio-Rad, Hercules, CA, USA). […] Resolved proteins were detected by specific primary antibodies and horseradish peroxidase-conjugated secondary antisera. The level of β-actin was determined as an internal control.

[1] = test system: B2R-mediated LIF secretion in U87-MG cells; experiment: Inhibition of bradykinin-induced LIF production (ELISA), U87-MG; settings: 5 μM HOE-140, 30 min pre-treatment, bradykinin 1 µM, 24 h
Method: Conditioned media were analyzed for the presence of multiple cytokines by using the cytokine multiplex assay kits (Merck Millipore, MA, USA) as previously described. Briefly, a bead mixture with various capture antibodies (50 μL) was added to a 96-well microtiter plate, followed by 50 μL of cytokine standard mix or test sample and then 25 μL of a biotinylated detection antibody mixture. The mixtures were incubated for 30 min at 25 °C with gentle shaking. Unbound antibodies were removed by three gentle washes. Finally, 50 μL of streptavidin–PE solution was added and incubated for another 30 min with gentle shaking. The detection beads were then washed again and resuspended in 120 μL of reading buffer. The Bio-Plex™ 200 system (Bio-Rad Laboratories, Hercules, CA, USA) with the Bio-Plex manager software (version 5.0) was utilized for signal detection and data analysis. Curve fitting was applied to each standard curve according to the manufacturer’s manual and sample concentrations were interpolated from the standard curves. Individual detections for LIF and IL-6 were performed using the corresponding ELISA kits from Abcam (Cambridge, UK) according to the manufacturer’s instructions.
(§3) The resulting Ca^2+ signal profiles were monitored by FLIPR for 3 min.

JNK = experiment: Stimulatory phosphorylation of JNK (Western blot), U87-MG; settings: 5 μM HOE-140, 1 µM bradykinin, 10 min
Method: as §3
(§4) SDS-PAGE and Western blotting were performed as described in our previous studies. In brief, cells in 6-well plates (5 × 10^5 cells/well) were lysed in 500 μL of ice-cold lysis buffer (50 mM Tris-HCl at pH 7.5 containing 100 mM NaCl, 5 mM EDTA, 40 mM NaP2O7, 1% Triton X-100, 1 mM dithiothreitol, 200 μM Na3VO4, 100 μM phenylmethylsulfonyl fluoride, 2 μg/mL leupeptin, 4 μg/mL aprotinin, and 0.7 μg/mL pepstatin) and then gently shaken for 30 min. The amount of protein in each sample was determined by detergent compatible (DC) protein assay according to the supplier’s instruction (Bio-Rad, Hercules, CA, USA). Clarified lysates (30 μg protein per sample) were resolved on 12% SDS-polyacrylamide gels and then transferred to nitrocellulose membranes (Westborough, MA, USA). Resolved proteins were detected by specific primary antibodies and horseradish peroxidase-conjugated secondary antisera. The level of β-actin was determined as an internal control. […] Chemiluminescence signals were then detected by ChemiDoc imaging systems (Bio-Rad, Hercules, CA, USA) with the subsequent band densities quantified by ImageJ (https://imagej.net/ij/) analysis software (National Institutes of Health, MD, USA). […]
(§5) Chemiluminescence signals were then detected by the ChemiDoc Imaging Systems (Bio-Rad, […]

JNK in U87-MG cells = experiment: JNK phosphorylation in U87-MG by SK-N-MC-derived conditioned media (CM-SK); settings: HOE-140 5 μM, 15 min pre-treatment
Method: as §1, §2

p38 MAPK = experiment: Stimulatory phosphorylation of p38 MAPK (Western blot), U87-MG; settings: 5 μM HOE-140, 1 µM bradykinin, 10 min
Method: as §3, §4, §5

ERK in U87-MG cells = experiment: ERK phosphorylation in U87-MG by SK-N-MC-derived conditioned media (CM-SK); settings: HOE-140 5 μM, 15 min pre-treatment
Method: as §1, §2

ERK = experiment: Stimulatory phosphorylation of ERK (Western blot), U87-MG; settings: 5 μM HOE-140, 1 µM bradykinin, 10 min
Method: as §3, §4, §5

HOE-140
inhibition of CM-SK-stimulated p38 phosphorylation (p38 in U87-MG cells): significantly inhibited
inhibition of bradykinin-induced LIF production [1]: blocked the ability of bradykinin to stimulate LIF production
inhibition of bradykinin-induced JNK activation (JNK): completely abolished
inhibition of CM-SK-stimulated JNK phosphorylation (JNK in U87-MG cells): significantly inhibited
inhibition of bradykinin-induced p38 MAPK activation (p38 MAPK): completely abolished
inhibition of CM-SK-stimulated ERK phosphorylation (ERK in U87-MG cells): significantly inhibited
inhibition of bradykinin-induced ERK activation (ERK): completely abolished
